Article PMC8769072, “Proteome‐scale mapping of binding sites in the unstructured regions of the human proteome” (Molecular Systems Biology, 2022)

System: immobilized GST-tagged bait protein domains
Test: ProP-PD phage selections (HD2 P8, sublibraries, HD2 P3, HD1 P8) with NGS and confidence level
Assay type: binding, human
Settings: for HD2_nucleus confidence: library HD2 P8 nucleus
[1] = library HD2, bait YAP1_WW_1_P46937_169_207, validated benchmark motif instance, in_library_check TRUE, TRUE/FALSE = instance recovered in ProP-PD selection
[2] = library HD2, bait EPS15_EH__P42566_121_215, whether the validated benchmark motif instance was recovered in the ProP-PD selection (TRUE/FALSE)
[3] = library HD2, bait Keap1_KELCH__Q14145_321_609, whether the validated benchmark motif instance was recovered in the ProP-PD selection (TRUE/FALSE)
[4] = HD2 library, bait SUMO1_SUMO__P63165_1_101, known motif instance of the benchmarking set found (TRUE) or not found (FALSE) among selected peptides
[5] = bait MAP1LC3B_ATG8 (Q9GZQ8 2-119), HD2 library, benchmark motif instance recovered in the ProP-PD selection (TRUE/FALSE)
[6] = HD2 library, bait TLN1_PTB__Q9Y490_309_401, known motif instance of the benchmarking set found (TRUE) or not found (FALSE) among selected peptides
[7] = bait MAP1LC3A_ATG8 (Q9H492 2-121), HD2 library, benchmark motif instance recovered in the ProP-PD selection (TRUE/FALSE)
[8] = bait PABP-B_PABP__P11940_544_623, HD2 library, confidence level (1-4) of best matching selected peptide
[9] = bait PABP-B_PABP__P11940_544_623, HD2 library, specificity score of best matching selected peptide
[10] = bait PABP-B_PABP__P11940_544_623, HD2 library, whether the validated benchmark motif instance was recovered in the ProP-PD selection (TRUE/FALSE)
[11] = library HD2, bait WDR5_WD_1234567_P61964_21_334, validated benchmark motif instance, in_library_check TRUE, TRUE/FALSE = instance recovered in ProP-PD selection
[12] = bait CALM1_EF-hand__P0DP23_2_149, library HD2, benchmarking set of validated motif instances, TRUE = motif instance recovered in the ProP-PD selection
[13] = HD2 library, bait CALM1_EF-hand__P0DP23_2_149, benchmark motif instance, in_library_check FALSE, in_library_coverage 0

GHSPPPAYTPMSGNQF
best_confidence (library HD2, bait YAP1_WW_1_P46937_169_207, confidence level of best matching selected peptide (4 High, 2-3 Medium, 1 Low)): 3 | best_specificity (library HD2, bait YAP1_WW_1_P46937_169_207, specificity score of best matching selected peptide): 1 | motif_found [1]: TRUE

GHSSRTSPLDNVGREL
HD2_nucleus confidence (bait WDR5_WD_1234567_P61964_21_334): 4

GLAFGAFTNPFTAPAAQSP
motif_found [2]: FALSE

GMEHRGPPPEYPFKGMPP
motif_found (bait NEDD4_WW_4_P46934_890_928, HD2 library, whether the validated benchmark motif instance was recovered in the ProP-PD selection (TRUE/FALSE)): FALSE | motif_found [1]: FALSE

GNVIRWHNQETGEQIAIKQC
motif_found [3]: FALSE

GPLRPVLEYIDLVSSDDEEPSTSYTD
motif_found [4]: FALSE

GPPSLNYIPPVLQLSG
best_specificity (bait CEP55_EABR__Q53EZ4_160_217, library HD2, best matching peptide): 1 | best_confidence (bait CEP55_EABR__Q53EZ4_160_217, library HD2, confidence level of best matching peptide (4 = High, 2 or 3 = Medium, 1 = Low)): 2

GPTPTEPPPPYSFRPE
HD2_cytoplasm confidence (bait NEDD4_WW_4_P46934_890_928, HD2 P8 cytoplasm sublibrary, confidence level (4 = High, 2-3 = Medium, 1 = Low)): 4

GQSLKVMPCLAPIAAKVGS
motif_found (library HD2, bait ZMYND11_coiled-coil-MYND__Q15326_480_602, validated benchmark motif instance, in_library_check TRUE, TRUE/FALSE = instance recovered in ProP-PD selection): FALSE

GRAQAEQWAAEFIQQQGTS
motif_found (bait PEX14_Pex14__O75381_16_84, HD2 library, whether the validated benchmark motif instance was recovered in the ProP-PD selection (TRUE/FALSE)): FALSE

GRDSPPSWRPQPDGEASQTEDV
motif_found (HD2 library, bait TNKS_TANK-peptide-bind__O95271_174_649, known motif instance of the benchmarking set found (TRUE) or not found (FALSE) among selected peptides): FALSE

GSSGNTHDDFVMIDFKPAFS
motif_found [5]: FALSE

GTNPTLVSVPNPVFGSDTFCEP
motif_found [6]: FALSE

GYRQSPDGACSV,YRQSPDGACS,LRNSATGYRQSPDGACSVPSAR,YRQSPDGACSV [LNPEP 95-102]
motif_found (HD2 library, bait TNKS_TANK-peptide-bind__O95271_174_649, benchmark motif instance, in_library_check FALSE, in_library_coverage 0): FALSE

HDDFVMIDFKPAFSKD
motif_found [7]: TRUE | best_confidence (bait MAP1LC3A_ATG8 (Q9H492 2-121), HD2 library, confidence level (1-4) of best matching peptide): 3 | best_specificity (bait MAP1LC3A_ATG8 (Q9H492 2-121), HD2 library, specificity score of best matching peptide): 1

HLNNDSSTTIIIDSSDETTESPTVGTAQ
motif_found [4]: FALSE

HPAPSWVAFAHTGAWG
HD2 confidence (bait AP2B1_adaptin__P63010_700_937, HD2 P8 selection, non primary paralogue peptide match, confidence level -4 to 4: 4 = High, 3 or 2 = Medium, 1 = Low, 0 = Filtered/Noise): 3

HTPRLPTLPKRVP,RRAFWHTPRLPTLPKRVPRAGEAR [CCDC8]
motif_found (bait ANKRA2_Ank__Q9H9E1_142_313, library HD2, benchmarking set of validated motif instances, TRUE = motif instance recovered in the ProP-PD selection): FALSE

IIYDRKFLMECRNSPV
best_specificity (library HD2, bait EIF4E_eIF4E__P06730_1_217, best matching peptide): 1 | best_confidence (library HD2, bait EIF4E_eIF4E__P06730_1_217, confidence level of best matching peptide (4 High, 2-3 Medium, 1 Low)): 2 | motif_found (library HD2, bait EIF4E_eIF4E__P06730_1_217, whether the validated benchmark motif instance was recovered in the ProP-PD selection (TRUE/FALSE)): TRUE

ILSKSNLNPDAKEFIP
best_confidence [8]: 2 | best_specificity [9]: 1 | motif_found [10]: TRUE

IPDTPSPTVSVITISSDTDE
motif_found [4]: FALSE

IPSAPLYEEITYSGIS
best_specificity (HD2 library, bait TSG101_UEV__Q99816_1_145, best matching selected peptide): 1 | best_confidence (HD2 library, bait TSG101_UEV__Q99816_1_145, confidence level of best matching selected peptide): 3 | motif_found (HD2 library, bait TSG101_UEV__Q99816_1_145, known motif instance of the benchmarking set found (TRUE) or not found (FALSE) among selected peptides): TRUE

IQPDSPAPNPFSEEDEHPQ
motif_found [2]: FALSE

IREHVTGCARSEGFYTIDKKD
motif_found [11]: FALSE

IYKSAVTTVVNPKYEGK----- [ITGB1 789-796]
motif_found (HD2 library, bait TLN1_PTB__Q9Y490_309_401, benchmark motif instance, in_library_check FALSE, in_library_coverage 0): FALSE

KATVEKPSNPFSGDLQKTF
motif_found [2]: FALSE

KDKEEVQRKRQKLMPNFSDS,IKDKEEVQRKRQKLMPNFSD [NFKB1 361-365]
motif_found (HD2 library, bait KPNA4_Arm__O00629_68_487, benchmark motif instance, in_library_check FALSE, in_library_coverage 0): FALSE

KDLATVNSNPFDDPDAAEL
motif_found [2]: FALSE

KEPGGSRAHSSHLKSKKGQ
motif_found (library HD2, bait USP7_MATH-TRAF__Q93009_53_206, validated benchmark motif instance, in_library_check TRUE, TRUE/FALSE = instance recovered in ProP-PD selection): FALSE

KILRLSGKP
motif_found (bait MAD2L1_HORMA (Q13257 1-205), HD2 library, benchmark motif instance recovered in the ProP-PD selection (TRUE/FALSE)): FALSE

KISPPTPKPRPPRPLPVAPGS
motif_found (library HD2, bait YES1_SH3__P07947_90_152, validated benchmark motif instance, in_library_check TRUE, TRUE/FALSE = instance recovered in ProP-PD selection): FALSE

KKAFVHMPTLPNLDFHKTGDGL
motif_found (library HD2, bait ANKRA2_Ank__Q9H9E1_142_313, motif instance NOT in library (in_library_check FALSE, in_library_coverage 0)): FALSE

KKKATFRAITSTLASSFKRR [GRIN1]
motif_found [12]: FALSE

KKRFSFKKSFKLSGFSFK [MARCKS]
motif_found [12]: FALSE

KLSKLDVLLLATTYIA
HD2_nucleus confidence (bait SIN3A_PAH__Q96ST3_295_383): 4

KMNAKWDTGENPIYKSAVTTVV
motif_found [6]: FALSE

KNSSCDTDDFVLVPHNISSD
motif_found [7]: FALSE | motif_found [5]: FALSE

KRRWKKNFIAVSAANRFKKISSSGAL [MYLK2]
motif_found [12]: FALSE

KSTLNPNAKEFNPRSF
best_confidence [8]: 2 | best_specificity [9]: 1 | motif_found [10]: TRUE

KTAEKSDFEAVEALMSMSCSWKSD [KLF10 39-48]
motif_found (HD2 library, bait SIN3A_PAH__Q96ST3_295_383, benchmark motif instance, in_library_check FALSE, in_library_coverage 0): FALSE

LAVNPTGCARSEPKMSAHVKR
motif_found [11]: FALSE

LAYLRSHKDEVVKIQSLARMHQARKRYRDRLQYF [IQGAP1 806-825]
motif_found [13]: FALSE

LDEAFSRLAQSRTNPQ
best_specificity (bait AP2B1_adaptin__P63010_700_937, library HD2, best matching peptide): 1 | best_confidence (bait AP2B1_adaptin__P63010_700_937, library HD2, confidence level of best matching peptide (4 = High, 2 or 3 = Medium, 1 = Low)): 2

LDPDKPTNFTNPVYATLYMGGH
motif_found [6]: FALSE

LELDRLMASLSDFRVQ
best_confidence (bait PTK2_Focal-AT__Q05397_891_1050, HD2 library, confidence level (1-4) of best matching selected peptide): 2 | best_specificity (bait PTK2_Focal-AT__Q05397_891_1050, HD2 library, specificity score of best matching selected peptide): 1 | motif_found (bait PTK2_Focal-AT__Q05397_891_1050, HD2 library, whether the validated benchmark motif instance was recovered in the ProP-PD selection (TRUE/FALSE)): TRUE

LETKVFPRPVLPSLTV
p3_HD2 confidence (bait ANKRA2_Ank__Q9H9E1_142_313, library HD2 P3): 2 | p3_HD2 count proportions (bait ANKRA2_Ank__Q9H9E1_142_313, library HD2 P3, mean normalised NGS counts): 0.06348 | p3_HD2 mean counts (bait ANKRA2_Ank__Q9H9E1_142_313, library HD2 P3, mean raw NGS counts, all selections): 1066 | HD2 confidence (bait ANKRA2_Ank__Q9H9E1_142_313, library HD2 P8): 4 | HD2_nc confidence (bait ANKRA2_Ank__Q9H9E1_142_313, library HD2 P8 nucleocytoplasmic): 3 | HD2_nc count proportions (bait ANKRA2_Ank__Q9H9E1_142_313, library HD2 P8 nucleocytoplasmic, mean normalised NGS counts): 0.1009 | HD2_nc mean counts (bait ANKRA2_Ank__Q9H9E1_142_313, library HD2 P8 nucleocytoplasmic, mean raw NGS counts, all selections): 4420.0

LFCQNLPPPLPPKKYA
p3_HD2 confidence (bait CRK_SH3_1_P46108_124_198, HD2 P3 library, confidence level (4 = High, 2-3 = Medium, 1 = Low)): 3 | p3_HD2 mean counts (bait CRK_SH3_1_P46108_124_198, HD2 P3 library, mean NGS counts over replicate selections): 10444.0 | p3_HD2 count proportions (bait CRK_SH3_1_P46108_124_198, HD2 P3 library, mean proportion of NGS counts): 0.2023

LFKSATTTVMNPKFAES-----
motif_found [6]: FALSE

LHIKTHLDEETGEKTSITLD
motif_found [3]: FALSE

LINVRKRNVESGEEELASKL
motif_found [3]: FALSE

LKKLPSAVIALQRSFRSKRSKMLLEINRQK [IQCB1 321-336]
motif_found [13]: FALSE

LKNINSINFDNPVYQKTTEDEV
motif_found [6]: FALSE

LKVLVKAVLFACMLMRK
motif_found (library HD2, bait CALM1_EF-hand__P0DP23_2_149, motif instance NOT in library (in_library_check FALSE, in_library_coverage 0)): FALSE

LLSIHKVYEAVELLKSNHFYR [GEMIN5 992-998]
motif_found (HD2 library, bait EIF4E_eIF4E__P06730_1_217, benchmark motif instance, in_library_check FALSE, in_library_coverage 0): FALSE

LMINPTGCARSEPKILTHYKR
motif_found [11]: FALSE
